Measured values: patent US20240059680A1, “N-(2,3-DIHYDRO-1,4-BENZOXAZIN-4-YL)-3-ISOPROPYL-7-(2,3,5-TRIFLUOROPHENYL)BENZO-THIOPHENE-2-CARBOXAMIDE DERIVATIVES AND SIMILAR COMPOUNDS FOR THE TREATMENT OF HEARTWORM INFECTIONS” (ELANCO TIERGESUNDHEIT AG, priority 2020, published 2024)
≈ marks a conversion by molar mass, not a printed value. Read-outs that look alike come from different tables or passages of the source.

Tests used:
[1] = target: D. immitis Slo-1 (Dirofilaria immitis, UniProt I0DFK5); assay: In Vitro Assay 2: D. immitis Slo-1, membrane potential measurement in recombinant CHO cell line; assay type: cell-based
[2] = tested on: Adult Nippostrongylus brasiliensis; assay: In Vitro Assay 5: Nippostrongylus brasiliensis (NIPOBR), acetylcholine esterase readout; assay type: cell-based
Method: In Vitro Assay 5: Nippostrongylus Brasiliensis (NIPOBR)
Adult Nippostrongylus brasiliensis were washed with saline buffer containing 100 U/ml penicillin, 0.1 mg/ml streptomycin and 2.5 μg/ml amphotericin B. Test compounds were dissolved in DMSO and worms were incubated in medium in a final concentration of 10 μg/ml (10 ppm), 1 μg/ml (1 ppm) and 0.1 μg/ml (0.1 ppm) respectively. An aliquot of the medium was used to determine the acetylcholine esterase activity in comparison to a negative control. The principle of measuring acetylcholine esterase as readout for anthelmintic activity was described in Rapson et al (1986) and Rapson et al (1987).
Based on the evaluation of a wide concentration range, concentration-response curves as well as EC50-values were calculated.

[3] = tested on: Dirofilaria immitis microfilariae; assay: In Vitro Assay 3: Dirofilaria immitis microfilariae (DIROIM L1) motility; assay type: cell-based; conditions: 72 h
[4] = tested on: Dirofilaria immitis third-stage larvae; assay: In Vitro Assay 4: Dirofilaria immitis (DIROIM L4) larval motility; assay type: cell-based; conditions: 72 h
[5] = target: C. elegans Slo-1a (Caenorhabditis elegans, UniProt Q95V25)
Method: For transfection with plasmid DNA to express C. elegans Slo-1a (accession number AAL28102) CHO cells were passaged to 40% confluence before adding the transfection solution to the cell culture. The transfection solution included 300 μL OptiMEM (Life Technologies, Nr.: 31985), 2 μL (=6 μg) of plasmid DNA containing the C. elegans Slo-1a gene and 9 μL FugeneHD (Promega, Nr.: E2311), and was added to the cells prior to incubation for 48 hours at 37° C., 5% CO2. The transfection medium was exchanged for the selection medium which contains additional G418 (2 mg/ml, Invitrogen, Nr.: 10131) and the cells were seeded into 384 well plates (300 cells/well). After a few weeks, the remaining surviving cells were tested with a voltage sensitive dye (Membrane Potential Assay Kit, Molecular Devices Nr.: R8034) for K+ channel expression. Positive cell clones were purified by the limited dilution technique. For this the clone with the highest and most robust signal in the voltage sensitive dye assay was further subcloned (incubated) in 384 well plates (0.7 cells/well) to obtain clonal purity. This generated a final stable CHO cell line expressing the C. elegans Slo-1a.
Cell culture conditions Cells were cultured at 37° C. and 5% CO2 in MEMalpha with Gutamax I (Invitrogen, Nr.: 32571), supplemented with 10% (v/v) heat inactivated fetal bovine serum (Invitrogen, Nr.: 10500), G418 (1 mg/ml, Invitrogen, Nr.: 10131). Cells were detached using Accutase (Sigma, Nr.: A6964).
Membrane Potential Measurements
Laboratory compound testing was performed on 384-well microtiter plates (MTPs, Greiner, Nr.: 781092). 8000 cells/well were plated onto 384-well MTPs and cultured for 20 to 24 hours at 37° C. and 5% CO2. After removal of the cell culture medium, the cells were washed once with tyrode (150 mM NaCl, 0.3 mM KCl, 2 mM CaCl2, 1 m M MgCl2, 0.8 mM NaH2PO4, 5 mM Glucose, 28 mM Hepes, pH 7.4) and then loaded with the voltage sensitive dye of the Membrane Potential Assay Kit diluted in tyrode for 1 h at room temperature. After starting the measurement of fluorescence using a FLIPR Tetra (Molecular Devices, Exc. 510-545 nm, Emm. 565-625 nm), test compounds were added followed by the addition of KCl tyrode (final assay concentration: 70 mM KCl, 2 mM CaCl2, 1 mM MgCl2, 0.8 mM NaH2PO4, 5 mM Glucose, 28 mM Hepes, pH 7.4, including the voltage sensitive dye). The measurement was completed after 7 minutes.
EC50 values were calculated using a four-parameter plotting by the Scilligence ELN/Regmol Software Tool, Bioassay.

[6] = acetylcholine esterase activity in medium vs negative control, adult worms, read-out: EC50

Chain of D. immitis Slo-1 (I0DFK5 1-1119): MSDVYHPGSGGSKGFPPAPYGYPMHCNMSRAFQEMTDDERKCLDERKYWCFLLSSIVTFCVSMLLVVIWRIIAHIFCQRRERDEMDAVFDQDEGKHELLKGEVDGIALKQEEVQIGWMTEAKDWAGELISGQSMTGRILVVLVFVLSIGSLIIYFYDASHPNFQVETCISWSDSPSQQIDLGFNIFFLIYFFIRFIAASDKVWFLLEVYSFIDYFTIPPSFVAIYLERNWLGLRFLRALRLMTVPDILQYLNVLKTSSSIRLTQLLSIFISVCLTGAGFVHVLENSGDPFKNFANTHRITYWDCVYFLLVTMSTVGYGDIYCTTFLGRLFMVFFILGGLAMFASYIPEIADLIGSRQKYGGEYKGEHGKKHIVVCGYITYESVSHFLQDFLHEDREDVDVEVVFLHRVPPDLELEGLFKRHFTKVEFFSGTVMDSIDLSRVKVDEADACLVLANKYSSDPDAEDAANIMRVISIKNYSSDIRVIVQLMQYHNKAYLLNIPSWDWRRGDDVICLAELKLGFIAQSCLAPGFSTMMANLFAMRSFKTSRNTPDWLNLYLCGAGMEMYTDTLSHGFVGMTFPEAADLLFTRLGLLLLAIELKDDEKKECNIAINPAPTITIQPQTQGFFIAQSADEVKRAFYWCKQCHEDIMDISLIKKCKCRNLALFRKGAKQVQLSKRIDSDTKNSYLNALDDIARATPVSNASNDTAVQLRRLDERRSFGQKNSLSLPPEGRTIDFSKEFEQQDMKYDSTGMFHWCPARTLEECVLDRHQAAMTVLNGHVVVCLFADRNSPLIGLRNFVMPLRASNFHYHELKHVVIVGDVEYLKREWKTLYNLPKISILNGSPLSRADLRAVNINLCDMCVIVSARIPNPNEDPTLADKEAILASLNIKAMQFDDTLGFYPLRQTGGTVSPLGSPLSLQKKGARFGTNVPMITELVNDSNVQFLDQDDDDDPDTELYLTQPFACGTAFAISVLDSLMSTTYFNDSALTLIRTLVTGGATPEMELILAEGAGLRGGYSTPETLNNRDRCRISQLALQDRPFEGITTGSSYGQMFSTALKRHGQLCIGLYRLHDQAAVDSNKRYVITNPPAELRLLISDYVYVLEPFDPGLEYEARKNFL
Chain of C. elegans Slo-1a (Q95V25 whole entry): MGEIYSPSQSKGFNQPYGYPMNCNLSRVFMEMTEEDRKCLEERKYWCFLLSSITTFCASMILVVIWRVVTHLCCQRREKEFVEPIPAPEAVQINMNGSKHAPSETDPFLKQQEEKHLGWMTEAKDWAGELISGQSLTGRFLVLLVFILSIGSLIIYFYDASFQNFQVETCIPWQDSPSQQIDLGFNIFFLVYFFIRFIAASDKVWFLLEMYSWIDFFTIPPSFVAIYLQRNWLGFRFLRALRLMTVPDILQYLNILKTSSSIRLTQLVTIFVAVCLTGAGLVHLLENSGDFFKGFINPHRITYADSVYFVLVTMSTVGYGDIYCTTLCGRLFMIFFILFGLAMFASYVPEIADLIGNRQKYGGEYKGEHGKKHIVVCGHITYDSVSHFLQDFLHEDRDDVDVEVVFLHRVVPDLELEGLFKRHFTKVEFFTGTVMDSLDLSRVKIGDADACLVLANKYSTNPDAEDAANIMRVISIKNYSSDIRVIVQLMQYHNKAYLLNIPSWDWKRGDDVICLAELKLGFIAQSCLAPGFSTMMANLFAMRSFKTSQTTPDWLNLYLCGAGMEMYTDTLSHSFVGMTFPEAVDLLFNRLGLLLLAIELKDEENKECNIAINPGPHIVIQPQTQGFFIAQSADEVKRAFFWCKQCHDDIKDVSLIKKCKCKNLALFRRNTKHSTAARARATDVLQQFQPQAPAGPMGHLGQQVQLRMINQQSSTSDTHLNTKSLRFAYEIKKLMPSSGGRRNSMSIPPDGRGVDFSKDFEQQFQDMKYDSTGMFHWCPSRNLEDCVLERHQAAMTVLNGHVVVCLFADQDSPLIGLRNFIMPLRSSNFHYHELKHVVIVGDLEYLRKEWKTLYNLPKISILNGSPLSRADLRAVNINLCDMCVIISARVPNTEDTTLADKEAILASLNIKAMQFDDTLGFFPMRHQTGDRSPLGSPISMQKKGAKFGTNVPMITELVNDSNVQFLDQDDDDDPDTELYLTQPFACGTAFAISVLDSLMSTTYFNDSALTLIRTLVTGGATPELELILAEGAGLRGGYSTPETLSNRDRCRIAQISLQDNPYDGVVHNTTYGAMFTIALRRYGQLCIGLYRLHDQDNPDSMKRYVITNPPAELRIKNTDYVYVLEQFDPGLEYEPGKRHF

Cc1nn2c(N3CCOCC3)c(C(=O)NN3CCOc4ccccc43)sc2c1-c1cc(F)cc(F)c1F [Example 4.2, N-(2,3-Dihydro-4H-benzo[b][1,4]oxazin-4-yl)-6-methyl-3-morpholino-7-(2,3,5-trifluorophenyl)pyrazolo[5,1-b]thiazole-2-carboxamide]
EC50 [1]: > 1000 nM
EC50 [2, 6]: 0.1 to 1 µg/mL (≈ 0.189 to 1.89 µM)
EC50 [3]: < 0.1 µg/mL
EC50 [4]: < 0.1 µg/mL
EC50 [5]: < 100 nM

Cc1nn2c(C(C)C)c(C(=O)NN3CCOc4ccccc43)cnc2c1-c1c(F)cccc1F [Example 3.1, 3-(2,6-Difluorophenyl)-N-(2,3-dihydro-1,4-benzoxazin-4-yl)-7-isopropyl-2-methyl-pyrazolo[1,5-a]pyrimidine-6-carboxamide]
EC50 [1]: 100 to 1000 nM
EC50 [2, 6]: > 1 µg/mL
EC50 [3]: < 0.1 µg/mL
EC50 [4]: < 0.1 µg/mL
EC50 [5]: < 100 nM

CC(C)c1c(C(=O)NN2CCOc3ccccc32)ccn2c(-c3c(F)ccc(F)c3F)nnc12 [Example 15.1, N-(2,3-Dihydro-1,4-benzoxazin-4-yl)-8-isopropyl-3-(2,3,6-trifluorophenyl)-[1,2,4] triazolo [4,3-a]pyridine-7-carboxamide]
EC50 [1]: > 1000 nM
EC50 [2, 6]: > 1 µg/mL
EC50 [3]: 0.1 to 1 µg/mL (≈ 0.214 to 2.14 µM)
EC50 [4]: > 1 µg/mL
EC50 [5]: > 1000 nM

CC(C)c1c(C(=O)NN2CCOc3ccccc32)ccc2c1nnn2-c1cc(F)cc(F)c1F [Example 16.1, N-(2,3-Dihydro-4H-benzo[b][1,4]oxazin-4-yl)-4-isopropyl-1-(2,3,5-trifluorophenyl)-1H-benzo[d][1,2,3]triazole-5-carboxamide]
EC50 [1]: > 1000 nM
EC50 [2, 6]: > 1 µg/mL
EC50 [3]: > 1 µg/mL
EC50 [4]: > 1 µg/mL
EC50 [5]: > 1000 nM

CC(C)c1c(C(=O)NN2CCOc3ccccc32)n(C)c2c(-c3cc(F)cc(F)c3F)cccc12 [Example 17.2, N-(2,3-Dihydro-4H-benzo[b][1,4]oxazin-4-yl)-3-isopropyl-1-methyl-7-(2,3,5-trifluoro-phenyl)-1H-indole-2-carboxamide]
EC50 [1]: > 1000 nM
EC50 [2, 6]: > 1 µg/mL
EC50 [4]: > 1 µg/mL
EC50 [5]: > 1000 nM

CC(C)c1c(C(=O)NN2CCOc3ccccc32)nc2c(-c3cc(F)cc(F)c3F)nccn12 [Example 8.1, N-(2,3-Dihydro-4H-benzo[b][1,4]oxazin-4-yl)-3-isopropyl-8-(2,3,5-trifluorophenyl)-imidazo[1,2-a]pyrazine-2-carboxamide]
EC50 [1]: > 1000 nM
EC50 [2, 6]: > 1 µg/mL
EC50 [3]: 0.1 to 1 µg/mL (≈ 0.214 to 2.14 µM)
EC50 [4]: 0.1 to 1 µg/mL (≈ 0.214 to 2.14 µM)
EC50 [5]: > 1000 nM

Cc1nn(-c2cc(F)cc(F)c2F)c2ncc(C(=O)NN3CCOc4ccccc43)c(C(C)C)c12 [Example 10.2, N-(2,3-Dihydro-4H-benzo[b][1,4]oxazin-4-yl)-4-isopropyl-3-methyl-1-(2,3,5-trifluorophenyl)-1H-pyrazolo[3,4-b]pyridine-5-carboxamide]
EC50 [1]: > 1000 nM
EC50 [2, 6]: > 1 µg/mL
EC50 [3]: 0.1 to 1 µg/mL (≈ 0.208 to 2.08 µM)
EC50 [4]: > 1 µg/mL
EC50 [5]: > 1000 nM

CC(C)c1c(C(=O)NN2CCOc3ccccc32)sc2c(-c3cc(F)cc(F)c3F)cccc12 [Example 1.1, N-(2,3-dihydro-1,4-benzoxazin-4-yl)-3-isopropyl-7-(2,3,5-trifluorophenyl)benzo-thiophene-2-carboxamide]
EC50 [1]: > 1000 nM
EC50 [2, 6]: 0.1 to 1 µg/mL (≈ 0.207 to 2.07 µM)
EC50 [3]: < 0.1 µg/mL
EC50 [4]: < 0.1 µg/mL
EC50 [5]: < 100 nM

CC(C)c1c(C(=O)NN2CCOc3ccccc32)oc2c(-c3cc(F)cc(F)c3F)cccc12 [Example 19.1, N-(2,3-Dihydro-1,4-benzoxazin-4-yl)-3-(1-methylethyl)-7-[2,3,5-tris(fluoranyl)-phenyl]benzofuran-2-carboxamide]
EC50 [2, 6]: 0.1 to 1 µg/mL (≈ 0.214 to 2.14 µM)
EC50 [4]: < 0.1 µg/mL

CC(C)c1c(C(=O)NN2CCOc3ccccc32)[nH]c2c(-c3cc(F)cc(F)c3F)cccc12 [Example 17.1, N-(2,3-dihydro-1,4-benzoxazin-4-yl)-3-(1-methylethyl)-7-[2,3,5-tris(fluoranyl)-phenyl]-1H-indole-2-carboxamide]
EC50 [1]: > 1000 nM
EC50 [2, 6]: > 1 µg/mL
EC50 [3]: < 0.1 µg/mL
EC50 [4]: > 1 µg/mL
EC50 [5]: > 1000 nM

CC(C)c1c(C(=O)NN2CCOc3ccccc32)cnc2c1nnn2-c1cc(F)cc(F)c1F [Example 14.1, N-(2,3-Dihydro-4H-benzo[b][1,4]oxazin-4-yl)-7-isopropyl-3-(2,3,5-trifluorophenyl)-3H-[1,2,3]triazolo[4,5-b]pyridine-6-carboxamide]
EC50 [1]: > 1000 nM
EC50 [2, 6]: > 1 µg/mL
EC50 [3]: < 0.1 µg/mL
EC50 [4]: > 1 µg/mL
EC50 [5]: > 1000 nM

O=C(NN1CCOc2ccccc21)c1sc2c(-c3cc(F)cc(F)c3F)ccnc2c1N1CCOCC1 [Example 6.8, N-(2,3-Dihydro-4H-benzo[b][1,4]oxazin-4-yl)-3-morpholino-7-(2,3,5-trifluoro-phenyl)thieno[3,2-b]pyridine-2-carboxamide]
EC50 [1]: 100 to 1000 nM
EC50 [2, 6]: > 1 µg/mL
EC50 [3]: < 0.1 µg/mL
EC50 [4]: < 0.1 µg/mL
EC50 [5]: < 100 nM

CC(C)c1c(C(=O)NN2CCOc3ccccc32)nc2c(-c3cc(F)cc(F)c3F)cccn12 [Example 7.1, N-(2,3-dihydro-4H-benzo[b][1,4]oxazin-4-yl)-3-isopropyl-8-(2,3,5-trifluoro-phenyl)imidazo[1,2-a]pyridine-2-carboxamide]
EC50 [1]: > 1000 nM
EC50 [2, 6]: > 1 µg/mL
EC50 [3]: 0.1 to 1 µg/mL (≈ 0.214 to 2.14 µM)
EC50 [4]: 0.1 to 1 µg/mL (≈ 0.214 to 2.14 µM)
EC50 [5]: > 1000 nM

O=C(NN1CCOc2ccccc21)c1sc2c(-c3cc(F)cc(F)c3F)c(F)cnc2c1N1CC(F)C1 [Example 6.2, N-(2,3-dihydro-4H-benzo[b][1,4]oxazin-4-VI)-6-fluoro-3-(3-fluoroazetidin-1-yl)-7-(2,3,5-trifluorophenyl)thieno[3,2-b]pyridine-2-carboxamide]
EC50 [1]: > 1000 nM
EC50 [2, 6]: > 1 µg/mL
EC50 [3]: < 0.1 µg/mL
EC50 [4]: 0.1 to 1 µg/mL (≈ 0.188 to 1.88 µM)
EC50 [5]: 100 to 1000 nM

CC(C)c1c(C(=O)NN2CCOc3ccccc32)sc2c(-c3cc(F)cc(F)c3F)nccc12 [Example 2.2, N-(2,3-Dihydro-1,4-benzoxazin-4-yl)-3-isopropyl-7-(2,3,5-trifluorophenyl)-thieno[2,3-c]pyridine-2-carboxamide]
EC50 [1]: 100 to 1000 nM
EC50 [2, 6]: 0.1 to 1 µg/mL (≈ 0.207 to 2.07 µM)
EC50 [3]: < 0.1 µg/mL
EC50 [4]: < 0.1 µg/mL
EC50 [5]: < 100 nM

Cc1nn2c(C(C)C)c(C(=O)NN3CCOc4ccccc43)nnc2c1-c1c(F)cccc1F [Example 5.1, 8-(2,6-Difluorophenyl)-N-(2,3-dihydro-1,4-benzoxazin-4-yl)-4-isopropyl-7-methyl-pyrazolo[5,1-c][1,2,4]triazine-3-carboxamide]
EC50 [1]: > 1000 nM
EC50 [2, 6]: > 1 µg/mL
EC50 [3]: < 0.1 µg/mL
EC50 [4]: 0.1 to 1 µg/mL (≈ 0.215 to 2.15 µM)
EC50 [5]: 100 to 1000 nM

O=C(NN1CCOc2ccccc21)c1sc2c(-c3cc(F)cc(F)c3F)c(F)cnc2c1N1CCOCC1 [Example 6.4, N-(2,3-Dihydro-4H-benzo[b][1,4]oxazin-4-yl)-6-fluoro-3-morpholino-7-(2,3,5-trifluorophenyl)thieno[3,2-b]pyridine-2-carboxamide]
EC50 [1]: 100 to 1000 nM
EC50 [2, 6]: 0.1 to 1 µg/mL (≈ 0.184 to 1.84 µM)
EC50 [3]: < 0.1 µg/mL
EC50 [4]: < 0.1 µg/mL
EC50 [5]: < 100 nM

CN(C)c1c(C(=O)NN2CCOc3ccccc32)cnc2c1ccn2-c1cc(F)cc(F)c1F [Example 18.1, N-(2,3-Dihydro-4H-benzo[b][1,4]oxazin-4-yl)-4-(dimethylamino)-1-(2,3,5-trifluorophenyl)-1H-pyrrolo[2,3-b]pyridine-5-carboxamide]
EC50 [1]: > 1000 nM
EC50 [2, 6]: > 1 µg/mL
EC50 [4]: < 0.1 µg/mL
EC50 [5]: 100 to 1000 nM

CC(C)n1c(C(=O)NN2CCOc3ccccc32)nc2c(-c3cc(F)cc(F)c3F)cccc21 [Example 13.1, N-(2,3-Dihydro-4H-benzo[b][1,4]oxazin-4-yl)-1-isopropyl-4-(2,3,5-trifluorophenyl)-1H-benzo[d]imidazole-2-carboxamide]
EC50 [1]: > 1000 nM
EC50 [2, 6]: > 1 µg/mL
EC50 [3]: 0.1 to 1 µg/mL (≈ 0.214 to 2.14 µM)
EC50 [4]: 0.1 to 1 µg/mL (≈ 0.214 to 2.14 µM)
EC50 [5]: 100 to 1000 nM

CC(C)c1c(C(=O)NN2CCOc3ccccc32)cnc2c1cnn2-c1cc(F)cc(F)c1F [Example 10.1, N-(2,3-Dihydro-4H-benzo[b][1,4]oxazin-4-yl)-4-isopropyl-1-(2,3,5-trifluorophenyl)-1H-pyrazolo[3,4-b]pyridine-5-carboxamide]
EC50 [1]: > 1000 nM
EC50 [2, 6]: > 1 µg/mL
EC50 [3]: 0.1 to 1 µg/mL (≈ 0.214 to 2.14 µM)
EC50 [4]: < 0.1 µg/mL
EC50 [5]: 100 to 1000 nM

Cc1nn2c(C(C)(C)O)c(C(=O)NN3CCOc4ccccc43)sc2c1-c1cc(F)cc(F)c1F [Example 4.3, N-(2,3-Dihydro-1,4-benzoxazin-4-yl)-3-(2-hydroxypropan-2-yl)-6-methyl-7-(2,3,5-trifluorophenyl)pyrazolo [3,2-b][1,3]thiazole-2-carboxamide]
EC50 [1]: 100 to 1000 nM
EC50 [2, 6]: 0.1 to 1 µg/mL (≈ 0.199 to 1.99 µM)
EC50 [3]: < 0.1 µg/mL
EC50 [4]: < 0.1 µg/mL
EC50 [5]: < 100 nM

CC(C)c1c(C(=O)NN2CCOc3ccccc32)sc2c(-c3cc(F)cc(F)c3F)ccnc12 [6,7]
EC50 [2]: < 0.1 µg/mL

CC(C)c1c(C(=O)NN2CCOc3ccccc32)sc2c(-c3cc(F)cc(F)c3F)ccnc12 [Example 6.7, N-(2,3-Dihydro-4H-benzo[b][1,4]oxazin-4-yl)-3-isopropyl-7-(2,3,5-trifluorophenyl)-thieno [3,2-b]pyridine-2-carboxamide]
EC50 [1]: < 100 nM
EC50 [3]: < 0.1 µg/mL
EC50 [4]: < 0.1 µg/mL
EC50 [5]: < 100 nM
